Read-outs that look alike come from different tables or passages of the source.
How the values were obtained:
[1] = tested on: HCC1806 cells; assay: Assay I of bioactive molecules on cell viability in vitro (CCK8); type: cell-based; conditions: Homo sapiens, HCC1806, 72 h; 7500 cells/well, 3 days; read-out: EC50(nM), killing of HCC1806 cells
[2] = tested on: HT29 cells; assay: as above; type: cell-based; conditions: Homo sapiens, HT-29, CCK8; read-out: EC50(nM), killing of HT29 cells
[3] = tested on: NCl-H358 cells; assay: as above; type: cell-based; conditions: Homo sapiens, read-out: EC50(nM), killing of NCl-H358 cells
[4] = human plasma 37° C., ADC 200 μg/mL, A1.9 released from B7H3-ADC-07(DAR8), DXD from B7H3-C1-ADC-21(DAR4)
Description: The appropriate concentration of internal standard stock solution was prepared with DMSO, and then acetonitrile or other reagents were used to prepare the appropriate concentration of the internal standard-containing precipitant.
Incubation of sample: the bacteriostatic agent ProClin was added to the plasma of each genera (human, cynomolgus monkey, ICR mouse) and PBS containing 1% BSA, and the final concentration of ProClin was 0.1%, Sterile operations were adopted. 40 μL working solution of test substance and 360 μL of human plasma were mixed to prepare 200 μg/mL of incubation sample. The plate was sealed with a film, and then incubated at 37° C. under 5% CO2 in an incubator, with a shaking speed of 80 times/mm. At 0 h, 4 h, 24 h, 2 d, 3 d, 7 d, 10 d, 14 d, 17 d, 21 d and 28 d, 20 μL of plasma sample was transferred, to which was added 200 μL of precipitant (containing internal standard), and completely mixed to precipitate the proteins.
All samples were subject to protein precipitating, and then centrifuged to collect the supernatant, which was diluted with water, and analyzed by LC-MS/MS.

CC[C@@]1(O)C(=O)OCc2c1cc1n(c2=O)Cc2c-1nc1cc3c(cc1c2CCCO)OCO3 [Example A1.9, (S)-7-ethyl-7-hydroxy-14-(3-hydroxypropyl)-10,13-dihydro-11H-[1,3]dioxolo[4,5-g]pyrano[3′,4′:6,7]indolizino[1,2-b]quinolin-8,11(7H)-dione]
EC50 [1]: 1.9 nM
EC50 [2]: 57.5 nM
EC50 [3]: 60.8 nM
Release ratio (%) ([4]; day 0): 0.14%
Release ratio (%) ([4]; day 0.17): 0.10%
Release ratio (%) ([4]; day 1): 0.11%
Release ratio (%) ([4]; day 2): 0.16%
Release ratio (%) ([4]; day 3): 0.14%
Release ratio (%) ([4]; day 7): 0.19%
Release ratio (%) ([4]; day 10): 0.24%
Release ratio (%) ([4]; day 14): 0.35%
Release ratio (%) ([4]; day 17): 0.40%
Release ratio (%) ([4]; day 21): 0.46%
Release ratio (%) ([4]; day 28): 0.82%

Reference: patent US20240108745A1, “BIOACTIVE SUBSTANCE CONJUGATE, PREPARATION METHOD THEREFOR AND USE THEREOF” (MEDILINK THERAPEUTICS (SUZHOU) CO., LTD., priority 2021, published 2024)
